These results are taken from ChEMBL document CHEMBL1833792, “Synthesis of glycoconjugate carbonic anhydrase inhibitors by ruthenium-catalysed azide-alkyne 1,3-dipolar cycloaddition” (Bioorg Med Chem Lett, 2011).

Molecules are shown by their SMILES.

Assay [1] deals with Carbonic anhydrase 2 (Homo sapiens) (UniProt P00918).
Description: Inhibition of recombinant carbonic anhydrase 2 by stopped flow CO2 hydration assay
Assay [2] deals with Carbonic anhydrase 9 (Homo sapiens) (UniProt Q16790).
Description: Inhibition of recombinant carbonic anhydrase 9 by stopped flow CO2 hydration assay
The target of assay [3] is Carbonic anhydrase 1 (Homo sapiens) (UniProt P00915).
Description: Inhibition of recombinant carbonic anhydrase 1 by stopped flow CO2 hydration assay
The nature of assay [4]: Selectivity ratio of Ki for carbonic anhydrase 1 to Ki for carbonic anhydrase 9.
Assay [5] is described as follows: Selectivity ratio of Ki for carbonic anhydrase 2 to Ki for carbonic anhydrase 9.
A short description of assay [6]: Selectivity ratio of Ki for carbonic anhydrase 1 to Ki for carbonic anhydrase 2.

Chain of Carbonic anhydrase 1 (Homo sapiens) (P00915 2-261 limits assumed): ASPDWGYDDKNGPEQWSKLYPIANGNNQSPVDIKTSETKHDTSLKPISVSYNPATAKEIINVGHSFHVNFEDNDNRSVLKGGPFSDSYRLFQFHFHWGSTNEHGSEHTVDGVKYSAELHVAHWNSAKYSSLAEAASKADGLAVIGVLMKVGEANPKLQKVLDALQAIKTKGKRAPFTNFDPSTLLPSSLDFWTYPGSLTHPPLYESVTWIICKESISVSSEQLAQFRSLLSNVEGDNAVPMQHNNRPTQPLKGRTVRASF

As for `CC(=O)OC[C@H]1O[C@@H](n2nncc2-c2ccc(S(N)(=O)=O)cc2)[C@H](OC(C)=O)[C@@H](OC(C)=O)[C@@H]1O[C@H]1O[C@H](COC(C)=O)[C@@H](OC(C)=O)[C@H](OC(C)=O)[C@H]1OC(C)=O`, the Kis in assay [1] was found to be 6.3 nM; in assay [2], 7.4 nM; in assay [3], 6.7 nM. The results for the Ratio Ki in assay [4] and in assay [5] were 0.91 and 0.85, respectively.
The corresponding values for `CC(=O)OC[C@H]1O[C@@H](n2nncc2-c2ccc(S(N)(=O)=O)cc2)[C@H](OC(C)=O)[C@@H](OC(C)=O)[C@@H]1OC(C)=O` are 163 nM, 32.6 nM, 1360 nM, 42.7 and 5.
Regarding `NS(=O)(=O)c1ccc(-c2cnnn2[C@@H]2O[C@H](CO)[C@@H](O)[C@H](O)[C@H]2O)cc1`, the Kis is 7.5 nM in assay [1], 7 nM in assay [2] and 74 nM in assay [3]. Besides, the Ratio Ki in assay [4] stood at 11; in assay [5] it was 1.1.
As for `NS(=O)(=O)c1ccc(-c2cnnn2[C@@H]2O[C@H](CO)[C@@H](O[C@H]3O[C@H](CO)[C@@H](O)[C@H](O)[C@H]3O)[C@H](O)[C@H]2O)cc1`, the Kis in assay [1] was determined as 4.6 nM; in assay [2] it was 8.7 nM; in assay [3], 4.9 nM. Moreover, the Ratio Ki in assay [4] stood at 0.56; in assay [5] it was 0.53.
On to `CC(=O)O[C@H]1[C@H](OC(C)=O)[C@H](OC(C)=O)CO[C@H]1n1nncc1-c1ccc(S(N)(=O)=O)cc1`, for which the Ratio Ki in assay [6] stood at 1510; in assay [4], 64; in assay [5], 0.04. Besides, the Kis in assay [1] turned out to be 2.9 nM; in assay [2], 68.3 nM; in assay [3] it was 4390 nM.
Regarding `NS(=O)(=O)c1ccc(-c2cnnn2[C@@H]2OC[C@@H](O)[C@@H](O)[C@@H]2O)cc1`, the Kis in assay [1] came out at 8.9 nM; in assay [2], 48.3 nM; in assay [3] it was 83 nM. For the same compound, the Ratio Ki turned out to be 1.7 in assay [4] and 0.18 in assay [5].
In the same order, the values of `NS(=O)(=O)c1ccc(-c2cnnn2[C@@H]2O[C@H](CO)[C@H](O)[C@H](O)[C@H]2O)cc1` are 13.9 nM, 8.4 nM, 79 nM, 9.4 and 1.7.
Take `COC(=O)[C@H]1O[C@@H](n2nncc2-c2ccc(S(N)(=O)=O)cc2)[C@H](OC(C)=O)[C@@H](OC(C)=O)[C@@H]1OC(C)=O`: the Kis stood at 3.1 nM in assay [1], 7.7 nM in assay [2] and 3.5 nM in assay [3]. The Ratio Ki was 0.45 in assay [4] and 0.4 in assay [5].
In the same order, the values of `CC(=O)OC[C@H]1O[C@@H](n2nncc2-c2ccc(S(N)(=O)=O)cc2)[C@H](OC(C)=O)[C@@H](OC(C)=O)[C@H]1OC(C)=O` are 2.4 nM, 7.3 nM, 71 nM, 9.7 and 0.33.
